Among the data in patent publication US9656990B2, “Cathepsin cysteine protease inhibitors” (Merck Sharp & Dohme Corp., priority 2014, dated 2017) are IC50 values, retold here.

The target of one assay is human cathepsin K (UniProt P43236, Y175D/V274L, species not given). As to the kind of experiment: Cathepsin K Assay. In kind it is biochemical. Particulars: IP from dose response curve; Z-Leu-Arg-AMC substrate, pH 5.5; read-out: hrbCat K (IP (nM)).
A further assay deals with T1, human cathepsin F (Homo sapiens, UniProt Q9UBX1).
T1 sequence (Q9UBX1 271-484): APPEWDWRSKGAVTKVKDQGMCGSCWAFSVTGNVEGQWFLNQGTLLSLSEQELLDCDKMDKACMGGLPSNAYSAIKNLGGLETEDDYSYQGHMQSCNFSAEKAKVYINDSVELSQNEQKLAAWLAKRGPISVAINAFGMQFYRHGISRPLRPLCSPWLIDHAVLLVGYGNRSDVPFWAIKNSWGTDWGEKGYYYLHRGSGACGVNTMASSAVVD
As to the kind of experiment: Cathepsin F Assay. Type of assay: biochemical. Particulars: IP from dose response curve; Z-Phe-Arg-AMC substrate, pH 5.5; read-out: hCat F (IP (nM)). In a few lines: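 Human cathepsin F (10 nM) preincubated 15 min at room temperature with compounds in 50 mM MES pH 5.5, 2.5 mM EDTA, 2.5 mM DTT, 10% DMSO. Z-Phe-Arg-AMC (8 μM) added; AMC release read by fluorescence (Ex 360/Em 460 nm) over 20 min, inhibition fit to dose-response model.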

For `N#CC1(NC(=O)[C@@H]2CCCC[C@H]2c2nn(-c3cc(F)c(F)c(F)c3)cc2-c2ccc(N3CCS(=O)(=O)CC3)cc2)CC1` [Example 128, (1R,2R)-N-(1-cyanocyclopropyl)-2-(4-(4-(1,1-dioxidothiomorpholino)phen-yl)-1-(3,4,5-trifluorophenyl)-1H-pyrazol-3-yl)cyclohexanecarboxamide], the IC50 at human cathepsin K worked out at 0.79 nM; on human cathepsin F it was 319 nM.

Consider `N#CC1(NC(=O)[C@@H]2CCCC[C@H]2c2nn(-c3ccc(F)cc3)cc2-c2ccc(N3CCS(=N)(=O)CC3)cc2)CC1` [Example 129, (1R,2R)-N-(1-cyanocyclopropyl)-2-(1-(4-fluorophenyl)-4-(4-(1-imino-1-oxidothiomorpholino)phenyl)-1H-pyrazol-3-yl)cyclohexanecarboxamide], for which the results for the IC50 at human cathepsin K and on human cathepsin F were 1.84 nM and 932 nM, respectively.

As to `CN=S1(=O)CCN(c2ccc(-c3cn(-c4ccc(F)cc4)nc3[C@@H]3CCCC[C@H]3C(=O)NC3(C#N)CC3)cc2)CC1` [Example 130, (1R,2R)-N-(1-cyanocyclopropyl)-2-(1-(4-fluorophenyl)-4-(4-(1-(methylimino)-1-oxidothiomorpholino)phenyl)-1H-pyrazol-3-yl)cyclohexanecarboxamide], the IC50 at human cathepsin K worked out at 1.92 nM; at human cathepsin F it was 854 nM.

Turning to `N#CC1(NC(=O)[C@@H]2CCCC[C@H]2c2nn(-c3ccc(F)cc3F)cc2-c2ccc(N3CCS(=O)(=O)CC3)cc2)CC1` [Example 131, (1R,2R)-N-(1-cyanocyclopropyl)-2-(1-(2,4-difluorophenyl)-4-(4-(1,1-dioxidothiomorpholino)phen-yl)-1H-pyrazol-3-yl)cyclohexanecarboxamide], the figures for the IC50 at human cathepsin K and at human cathepsin F were 2.49 nM and 1540 nM, respectively.

As to `N#Cc1ccc(-n2cc(-c3ccc(N4CCS(=O)(=O)CC4)cc3)c([C@@H]3CCCC[C@H]3C(=O)NC3(C#N)CC3)n2)c(F)c1` [Example 132, (1R,2R)-2-(1-(4-cyano-2-fluorophenyl)-4-(4-(1,1-dioxidothiomorpholino)phen-yl)-1H-pyrazol-3-yl)-N-(1-cyanocyclopropyl)cyclohex-anecarboxamide], the IC50 on human cathepsin K is 2.51 nM; at human cathepsin F it was 733 nM.

As for `N#CC1(NC(=O)[C@@H]2CCCC[C@H]2c2nn(-c3c(F)cccc3F)cc2-c2ccc(N3CCS(=O)(=O)CC3)cc2)CC1` [Example 133, (1R,2R)-N-(1-cyanocyclopropyl)-2-(1-(2,6-difluorophenyl)-4-(4-(1,1-dioxidothiomorpholino)phen-yl)-1H-pyrazol-3-yl)cyclohexanecarboxamide], the results for the IC50 on human cathepsin K and on human cathepsin F were 3.56 nM and 2340 nM, respectively.

Consider `CC(=O)N1CC(c2ccc(-c3cn(-c4ccc(F)cc4)nc3[C@@H]3CCCC[C@H]3C(=O)NC3(C#N)CC3)cc2)C1` [Example 134, (1R,2R)-2-(4-(4-(1-acetylazetidin-3-yl)phenyl)-1-(4-fluorophenyl)-1H-pyrazol-3-yl)-N-(1-cyanocyclopropyl)cyclohex-anecarboxamide], for which the IC50 on human cathepsin K amounted to 1.57 nM; on human cathepsin F, 210 nM.

In the case of `CNC(=O)N1CC(c2ccc(-c3cn(-c4ccc(F)cc4)nc3[C@@H]3CCCC[C@H]3C(=O)NC3(C#N)CC3)cc2)C1` [Example 135, 3-(4-(3-((1R,2R)-2-((1-cyanocyclopropyl)carbamoyl)cyclohexyl)-1-(4-fluorophenyl)-1H-pyrazol-4-yl)phenyl)-N-methylazetidine-1-carboxamide], the figures for the IC50 at human cathepsin K and at human cathepsin F were 0.71 nM and 64 nM, respectively.

For the compound `N#CC1(NC(=O)[C@@H]2CCCC[C@H]2c2nn(-c3ccc(F)cc3)cc2-c2ccc(C3CN(C(=O)NCC(F)(F)F)C3)cc2)CC1` [Example 136, 3-(4-(3-((1R,2R)-2-((1-cyanocyclopropyl)carbamoyl)cyclohexyl)-1-(4-fluorophenyl)-1H-pyrazol-4-yl)phenyl)-N-(2,2,2-trifluoroethyl)azetidine-1-carboxamide], the IC50 at human cathepsin K came to 0.97 nM; on human cathepsin F, 83 nM.

With `N#CC1(NC(=O)[C@@H]2CCCC[C@H]2c2nn(-c3ccc4[nH]ccc4c3)cc2-c2ccc(N3CCS(=O)(=O)CC3)cc2)CC1` [Example 137, (1R,2R)-N-(1-cyanocyclopropyl)-2-(4-(4-(1,1-dioxidothiomorpholino)phen-yl)-1-(1H-indol-5-yl)-1H-pyrazol-3-yl)cyclohexanecarboxamide], the IC50 at human cathepsin K was 8.43 nM; at human cathepsin F, 2830 nM.

With `CCN=S1(=O)CCN(c2ccc(-c3cn(-c4ccc(F)cc4)nc3[C@@H]3CCCC[C@H]3C(=O)NC3(C#N)CC3)cc2)CC1` [Example 138, (1R,2R)-N-(1-cyanocyclopropyl)-2-(4-(4-(1-(ethylimino)-1-oxidothiomorpholino)phenyl)-1-(4-fluorophenyl)-1H-pyrazol-3-yl)cyclohexanecarboxamide], the IC50 on human cathepsin K was determined as 1.62 nM; at human cathepsin F, 725 nM.

On to `Cc1c(-c2ccc(N3CCS(=O)(=O)CC3)cc2)c([C@@H]2CCCC[C@H]2C(=O)NC2(C#N)CC2)nn1-c1ccc(F)cc1` [Example 139, (1R,2R)-N-(1-cyanocyclopropyl)-2-(4-(4-(1,1-dioxidothiomorpholino)phen-yl)-1-(4-fluorophenyl)-5-methyl-1H-pyrazol-3-yl)cyclohexanecarboxamide], for which the IC50 on human cathepsin K was determined as 7.48 nM; on human cathepsin F, 649 nM.

As to `CC(C)N=S1(=O)CCN(c2ccc(-c3cn(-c4ccc(F)cc4)nc3[C@@H]3CCCC[C@H]3C(=O)NC3(C#N)CC3)cc2)CC1` [Example 140, (1R,2R)-N-(1-cyanocyclopropyl)-2-(1-(4-fluorophenyl)-4-(4-(1-(isopropylimino)-1-oxidothiomorpholino)phenyl)-1H-pyrazol-3-yl)cyclohexanecarboxamide], the IC50 on human cathepsin K was found to be 1.29 nM; at human cathepsin F, 782 nM.

As for `N#CC1(NC(=O)[C@@H]2CCCC[C@H]2c2nn(-c3ccc(F)cc3)cc2-c2ccc(N3CCS(=O)(=NCC(F)(F)F)CC3)cc2)CC1` [Example 141, (1R,2R)-N-(1-cyanocyclopropyl)-2-(1-(4-fluorophenyl)-4-(4-(1-oxido-1-((2,2,2-trifluoroethyl)imino)thio-morpholino)phenyl)-1H-pyrazol-3-yl)cyclohexanecarboxamide], the IC50 amounted to 2.1 nM at human cathepsin K and 816 nM on human cathepsin F.

As for `N#CC1(NC(=O)[C@@H]2CCCC[C@H]2c2nn(-c3ccccn3)cc2-c2ccc(N3CCS(=O)(=O)CC3)cc2)CC1` [Example 142, (1R,2R)-N-(1-cyanocyclopropyl)-2-(4-(4-(1,1-dioxidothiomorpholino)phen-yl)-1-(pyridin-2-yl)-1H-pyrazol-3-yl)cyclohexanecarboxamide], the IC50 on human cathepsin K worked out at 0.52 nM; on human cathepsin F, 232 nM.

`N#CC1(NC(=O)[C@@H]2CCCC[C@H]2c2nn(-c3ccc(C(F)(F)F)cn3)cc2-c2ccc(N3CCS(=O)(=O)CC3)cc2)CC1` [Example 143, (1R,2R)-N-(1-cyanocyclopropyl)-2-(4-(4-(1,1-dioxidothiomorpholino)phen-yl)-1-(5-(trifluoromethyl)pyridin-2-yl)-1H-pyrazol-3-yl)cyclohexanecarboxamide]: the figures for the IC50 at human cathepsin K and on human cathepsin F were 1.17 nM and 395 nM, respectively.

Turning to `N#CC1(NC(=O)[C@@H]2CCCC[C@H]2c2nn(-c3ncccc3F)cc2-c2ccc(N3CCS(=O)(=O)CC3)cc2)CC1` [Example 144, (1R,2R)-N-(1-cyanocyclopropyl)-2-(4-(4-(1,1-dioxidothiomorpholino)phen-yl)-1-(3-fluoropyridin-2-yl)-1H-pyrazol-3-yl)cyclohexanecarboxamide], the IC50 on human cathepsin K turned out to be 5.59 nM; on human cathepsin F, 3060 nM.

In the case of `N#CC1(NC(=O)[C@@H]2CCCC[C@H]2c2nn(-c3ccc(F)cn3)cc2-c2ccc(N3CCS(=O)(=O)CC3)cc2)CC1` [Example 145, (1R,2R)-N-(1-cyanocyclopropyl)-2-(4-(4-(1,1-dioxidothiomorpholino)phen-yl)-1-(5-fluoropyridin-2-yl)-1H-pyrazol-3-yl)cyclohexanecarboxamide], the IC50 at human cathepsin K stood at 1.24 nM; on human cathepsin F it was 481 nM.

With `N#CC1(NC(=O)[C@@H]2CCCC[C@H]2c2nn(-c3ccc(Cl)cn3)cc2-c2ccc(N3CCS(=O)(=O)CC3)cc2)CC1` [Example 146, (1R,2R)-2-(1-(5-chloropyridin-2-yl)-4-(4-(1,1-dioxidothiomorpholino)phen-yl)-1H-pyrazol-3-yl)-N-(1-cyanocyclopropyl)cyclohex-anecarboxamide], the IC50 on human cathepsin K turned out to be 1.15 nM; on human cathepsin F, 272 nM.

Take `N#CC1(NC(=O)[C@@H]2CCCC[C@H]2c2nn(-c3ncc(F)cc3Cl)cc2-c2ccc(N3CCS(=O)(=O)CC3)cc2)CC1` [Example 147, (1R,2R)-2-(1-(3-chloro-5-fluoropyridin-2-yl)-4-(4-(1,1-dioxidothiomorpholino)phen-yl)-1H-pyrazol-3-yl)-N-(1-cyanocyclopropyl)cyclohex-anecarboxamide]: the IC50 on human cathepsin K came to 3.26 nM; on human cathepsin F it was 1190 nM.

In the case of `N#CC1(NC(=O)[C@@H]2CCCC[C@H]2c2nn(-c3ncc(F)cc3F)cc2-c2ccc(N3CCS(=O)(=O)CC3)cc2)CC1` [Example 148, (1R,2R)-N-(1-cyanocyclopropyl)-2-(1-(3,5-difluoropyridin-2-yl)-4-(4-(1,1-dioxidothiomorpholino)phen-yl)-1H-pyrazol-3-yl)cyclohexanecarboxamide], the values for the IC50 on human cathepsin K and on human cathepsin F were 1.01 nM and 502 nM, respectively.
